We go through 14 compounds from PubChem BioAssay (NCI).

Among the test systems are 786-0 renal; CCRF-CEM leukemia; HOP-92 NSCLC; LOX IMVI melanoma; NCI-H522 lung; PC-3 prostate; SF-268 CNS; SN12C renal; SR leukemia; UACC-62 melanoma.
What all share (test): NCI anticancer screen, dose series, 48 h

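Following 48 hours of exposure in 96-well plates, responses at five concentrations were used to interpolate endpoints linearly. GI50 marks 50% less growth. TGI marks complete inhibition of growth.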 A value given as a limit tells only on which side of the number the result lay.

On to `N#C/C(=C/N1CCN(C(=O)c2ccco2)C1=S)C(=O)c1ccccc1`, for which the GI50 in the assay with 786-0 renal was 16.1 µM; with CCRF-CEM leukemia it was 41.9 µM; in the assay with HOP-92 NSCLC, 26.9 µM; in the assay on LOX IMVI melanoma, 17.9 µM; in the assay with NCI-H522 lung it was 3.74 µM; in the assay on PC-3 prostate it was 31.7 µM. For the same compound, the GI50 was 31.2 µM with SF-268 CNS, 8.64 µM in the assay on SN12C renal, 2.84 µM in the assay with SR leukemia and 12.9 µM in the assay with UACC-62 melanoma. Moreover, the TGI with 786-0 renal was 44.6 µM; with CCRF-CEM leukemia, above 100 µM; in the assay on HOP-92 NSCLC, above 100 µM; with LOX IMVI melanoma, above 100 µM; with NCI-H522 lung, 12.3 µM; in the assay with PC-3 prostate it was above 100 µM. The TGI in the assay on SF-268 CNS is 93.3 µM; with SN12C renal it was 25 µM; in the assay with SR leukemia, above 100 µM; in the assay on UACC-62 melanoma, 30.3 µM.
In the case of `Cc1c(C2=C(Br)C(=O)N(C)C2=O)c(=O)n(C)c(=O)n1C`, the TGI in the assay with 786-0 renal was 32.1 µM; in the assay on CCRF-CEM leukemia, 48 µM; in the assay with HOP-92 NSCLC it was 34.4 µM; in the assay on LOX IMVI melanoma it was 32.3 µM; in the assay with NCI-H522 lung, 29.5 µM; in the assay on PC-3 prostate, 49.6 µM. For the same compound, the TGI in the assay on SF-268 CNS is above 100 µM; in the assay on SN12C renal it was above 100 µM; in the assay with SR leukemia, 75.9 µM; with UACC-62 melanoma it was 97.9 µM.
With `N#CC(=NCCO)C1=C(O)c2ccccc2C1=O`, the TGI in the assay on 786-0 renal, in the assay with HOP-92 NSCLC, in the assay with LOX IMVI melanoma, with NCI-H522 lung, with PC-3 prostate and in the assay on SF-268 CNS was above 100 µM throughout. Besides, the TGI in the assay on SN12C renal, in the assay on SR leukemia and with UACC-62 melanoma was above 100 µM in each case.
Take `Cc1cc(S(=O)(=O)N/N=C(\Sc2cc(Cl)c(C)cc2S(N)(=O)=O)c2ccc(Cl)cc2)c(Cl)cc1Cl`: the GI50 in the assay with 786-0 renal was 42.1 µM; in the assay on CCRF-CEM leukemia, 36.8 µM; in the assay on HOP-92 NSCLC it was 47.6 µM; in the assay on LOX IMVI melanoma, 30.8 µM; in the assay on NCI-H522 lung, 72.7 µM; in the assay on PC-3 prostate it was 86.4 µM. The GI50 with SF-268 CNS was above 100 µM; in the assay on SN12C renal, 97.2 µM; with SR leukemia, 64.2 µM; in the assay with UACC-62 melanoma, above 100 µM. Besides, the TGI with 786-0 renal was above 100 µM; with CCRF-CEM leukemia, above 100 µM; in the assay on HOP-92 NSCLC it was above 100 µM; with LOX IMVI melanoma, 99.6 µM; in the assay on NCI-H522 lung it was above 100 µM; in the assay with PC-3 prostate it was above 100 µM. Moreover, the TGI in the assay with SF-268 CNS, with SN12C renal, with SR leukemia and with UACC-62 melanoma was above 100 µM each time.
Regarding `COc1cc2c3c(n(CCCN(C)C)c(=O)c2cc1OC)-c1ccccc1C3=O`, the GI50 in the assay on 786-0 renal is 16 µM; with CCRF-CEM leukemia, 0.24 µM; in the assay with HOP-92 NSCLC, 23.2 µM; in the assay with LOX IMVI melanoma it was 4.66 µM; with NCI-H522 lung it was 5.59 µM; in the assay with PC-3 prostate, 9.02 µM. In addition, the GI50 in the assay with SF-268 CNS is 7.69 µM; with SN12C renal, 7.16 µM; with SR leukemia, 0.184 µM; with UACC-62 melanoma, 1.48 µM. For the same compound, the TGI is 73.9 µM in the assay with 786-0 renal; 1.73 µM in the assay with CCRF-CEM leukemia; above 100 µM with HOP-92 NSCLC; 19.2 µM with LOX IMVI melanoma; above 100 µM with NCI-H522 lung; above 48.7 µM in the assay on PC-3 prostate. Further, the TGI was above 100 µM in the assay with SF-268 CNS, 72.3 µM in the assay with SN12C renal, 1.82 µM with SR leukemia and 19.1 µM in the assay with UACC-62 melanoma.
Regarding `CC(C)S(=O)(=O)c1ccccc1Nc1nc(Nc2cccc(NC(=O)CN)c2)ncc1Cl`, the GI50 is 0.235 µM with 786-0 renal; below 0.0355 µM in the assay on CCRF-CEM leukemia; 0.102 µM in the assay with HOP-92 NSCLC; 0.0384 µM with LOX IMVI melanoma; 1.33 µM with NCI-H522 lung; 0.308 µM in the assay with PC-3 prostate. The GI50 was 0.189 µM in the assay with SF-268 CNS, 0.21 µM in the assay with SN12C renal, 0.0101 µM with SR leukemia and 0.164 µM in the assay on UACC-62 melanoma. The TGI in the assay on 786-0 renal stood at 2.57 µM; in the assay with CCRF-CEM leukemia, 4.5 µM; in the assay with HOP-92 NSCLC, 1.55 µM; in the assay on LOX IMVI melanoma, 0.258 µM; with NCI-H522 lung, 4.08 µM; with PC-3 prostate, 5.9 µM. For the same compound, the TGI was determined as 1.3 µM with SF-268 CNS, 6.66 µM with SN12C renal, 0.423 µM in the assay on SR leukemia and 1.83 µM with UACC-62 melanoma.
With `O=C(/C=C/c1cc(CN2CCOCC2)c(O)c2ncccc12)c1cc(CN2CCOCC2)c(O)c2ncccc12`, the GI50 with 786-0 renal was 0.0802 µM; in the assay with CCRF-CEM leukemia it was 0.05 µM; with HOP-92 NSCLC, 0.0292 µM; in the assay with LOX IMVI melanoma, 0.0394 µM; in the assay with NCI-H522 lung, 0.0208 µM; with PC-3 prostate it was 0.05 µM. Moreover, the GI50 is 0.0469 µM in the assay on SF-268 CNS, 0.0673 µM in the assay with SN12C renal, 0.0463 µM with SR leukemia and 0.0457 µM in the assay on UACC-62 melanoma. The TGI was above 32.6 µM with 786-0 renal; above 100 µM in the assay on CCRF-CEM leukemia; 0.525 µM in the assay on HOP-92 NSCLC; above 100 µM in the assay on LOX IMVI melanoma; above 53.7 µM in the assay with NCI-H522 lung; above 100 µM in the assay with PC-3 prostate. Moreover, the TGI with SF-268 CNS, in the assay on SN12C renal and in the assay with SR leukemia was above 100 µM in each case.
Regarding `Cc1cn2c(/C=C3\C(=O)N(C)c4ccc(O)cc43)c(C)nc2s1`, the GI50 is 6.41 µM in the assay with 786-0 renal; 6 µM with CCRF-CEM leukemia; 31.7 µM in the assay with HOP-92 NSCLC; 7.51 µM in the assay with LOX IMVI melanoma; 3.02 µM in the assay on NCI-H522 lung; 7.46 µM in the assay with PC-3 prostate. Besides, the GI50 in the assay with SF-268 CNS was 9.08 µM; with SN12C renal it was 18.3 µM; in the assay with SR leukemia, 1.98 µM; in the assay with UACC-62 melanoma, 7.61 µM. The TGI was above 100 µM in the assay with 786-0 renal; above 100 µM in the assay on CCRF-CEM leukemia; above 100 µM in the assay on HOP-92 NSCLC; above 100 µM in the assay on LOX IMVI melanoma; 13.7 µM in the assay with NCI-H522 lung; above 100 µM in the assay with PC-3 prostate. The TGI in the assay on SF-268 CNS is above 100 µM; with SN12C renal it was above 100 µM; in the assay on SR leukemia it was 9.91 µM; in the assay with UACC-62 melanoma it was above 100 µM.
With `COc1ccc2c(c1)[C@@]13CCCC[C@H]1[C@@H](C2)N(C)CC3=O`, the TGI in the assay on 786-0 renal is 32.8 µM; in the assay with CCRF-CEM leukemia it was 73.6 µM; in the assay with HOP-92 NSCLC, 28.4 µM; in the assay with LOX IMVI melanoma it was 30.9 µM; in the assay on NCI-H522 lung, 32.9 µM; in the assay on PC-3 prostate, 29 µM. Further, the TGI in the assay with SF-268 CNS amounted to 35.8 µM; with SN12C renal it was 50.4 µM; in the assay with SR leukemia it was 42 µM; in the assay on UACC-62 melanoma, 32.7 µM.
On to `COc1ccc2[nH]c3c4c(ccc3c2c1)C(=O)C=CC4=O`, for which the TGI is 24.2 µM in the assay with 786-0 renal; 6.55 µM in the assay on CCRF-CEM leukemia; 7.64 µM in the assay with HOP-92 NSCLC; 24.1 µM with LOX IMVI melanoma; 3.66 µM in the assay with NCI-H522 lung; 33.8 µM in the assay with PC-3 prostate. Besides, the TGI in the assay with SF-268 CNS stood at 36.1 µM; in the assay on SN12C renal, 24.4 µM; with SR leukemia, 2.79 µM; in the assay with UACC-62 melanoma, 36 µM.
For the compound `O=C(Nc1ccc(Br)cc1)c1ccc(Cl)c(Cl)c1`, the GI50 with 786-0 renal is 3.92 µM; in the assay on CCRF-CEM leukemia, 4.81 µM; with HOP-92 NSCLC it was 0.341 µM; in the assay on LOX IMVI melanoma, 2.56 µM; in the assay with NCI-H522 lung, 2.75 µM; in the assay with PC-3 prostate, 2.47 µM. Besides, the GI50 in the assay with SF-268 CNS is 4.51 µM; with SN12C renal, 3.21 µM; with SR leukemia it was 4.35 µM; with UACC-62 melanoma it was 2.92 µM. Moreover, the TGI in the assay on 786-0 renal is above 100 µM; in the assay with CCRF-CEM leukemia, above 100 µM; in the assay on HOP-92 NSCLC it was 5.1 µM; in the assay with LOX IMVI melanoma, 7.67 µM; in the assay with NCI-H522 lung it was 16.2 µM; in the assay on PC-3 prostate, above 30.8 µM. Further, the TGI with SF-268 CNS, in the assay on SN12C renal, in the assay on SR leukemia and with UACC-62 melanoma was above 100 µM in each case.
With `N=C(N)SCc1cccc(-c2nc3ccccc3c(=O)o2)c1`, the TGI in the assay with 786-0 renal, with HOP-92 NSCLC, with LOX IMVI melanoma, with NCI-H522 lung, with PC-3 prostate and in the assay with SF-268 CNS was above 100 µM in each case. For the same compound, the TGI in the assay with SN12C renal, in the assay on SR leukemia and in the assay on UACC-62 melanoma was above 100 µM each time.
On to `COc1cc(C2=C(c3cn(C)c4ccccc34)COC2=O)cc(OC)c1OC`, for which the GI50 in the assay on 786-0 renal was 0.317 µM; in the assay on CCRF-CEM leukemia, 0.0592 µM; in the assay with HOP-92 NSCLC it was 0.249 µM; with NCI-H522 lung, 0.0485 µM; with PC-3 prostate it was 0.125 µM; with SF-268 CNS, 0.802 µM. Also, the GI50 in the assay on SN12C renal is 0.593 µM; in the assay on SR leukemia, 0.0219 µM. Further, the TGI in the assay with 786-0 renal was above 32.8 µM; in the assay with CCRF-CEM leukemia it was above 100 µM; with HOP-92 NSCLC, 4.91 µM; with NCI-H522 lung it was 0.716 µM; with PC-3 prostate it was 53.8 µM; in the assay with SF-268 CNS it was 7.41 µM. The TGI in the assay with SN12C renal and with SR leukemia was above 100 µM throughout.
With `CCOC(=O)c1c[nH]c2oc(/C=N/N3CC(CN4CCOCC4)OC3=O)cc2c1=O` (configuration not stated), the TGI in the assay on 786-0 renal, with CCRF-CEM leukemia, with HOP-92 NSCLC, with LOX IMVI melanoma, in the assay with PC-3 prostate and in the assay with SF-268 CNS was above 100 µM throughout. Moreover, the TGI in the assay with SN12C renal, in the assay with SR leukemia and with UACC-62 melanoma was above 100 µM throughout.
